According to patent US9695155B2, “Herbicidal substituted pyrimidinyloxy benzene compounds” (E. I. DU PONT DE NEMOURS AND COMPANY, priority 2013, dated 2017):

What was measured:
barnyardgrass [1] = test: Test A preemergence; assay type: in vivo, Echinochloa crus-galli; conditions: for Plant response rating, Barnyardgrass: 0 to 100 scale where 0 is no effect and 100 is complete control
Outline: (§1)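 Injury scores run from 0, no effect, to 100, complete control, judged by eye against untreated plants roughly 10 days after treatment. Chemicals carried a surfactant in a non-phytotoxic solvent and went onto loam–sand soil preemergence or onto one- to two-leaf seedlings postemergence.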

kochia [2] = test: Test A preemergence; assay type: in vivo, Kochia scoparia; conditions: for Plant response rating, Kochia: 0 to 100 scale where 0 is no effect and 100 is complete control
Outline: as §1

ragweed [3] = test: Test A preemergence; assay type: in vivo, Ambrosia elatior; conditions: for Plant response rating, Ragweed: 0 to 100 scale where 0 is no effect and 100 is complete control
Outline: as §1

Italian ryegrass [4] = test: Test A preemergence; assay type: in vivo, Lolium multiflorum; conditions: for Plant response rating, Ryegrass, Italian: 0 to 100 scale where 0 is no effect and 100 is complete control
Outline: as §1

giant foxtail [5] = test: Test A preemergence; assay type: in vivo, Setaria faberii; conditions: for Plant response rating, Foxtail, Giant: 0 to 100 scale where 0 is no effect and 100 is complete control
Outline: as §1

pigweed [6] = test: Test A preemergence; assay type: in vivo, Amaranthus retroflexus; conditions: for Plant response rating, Pigweed: 0 to 100 scale where 0 is no effect and 100 is complete control
Outline: as §1

barnyardgrass [7] = test: Test A postemergence; assay type: in vivo, Echinochloa crus-galli; conditions: for Plant response rating, Barnyardgrass: 0 to 100 scale, 0 no effect, 100 complete control
Outline: as §1

kochia [8] = test: Test A postemergence; assay type: in vivo, Kochia scoparia; conditions: for Plant response rating, Kochia: 0 to 100 scale, 0 no effect, 100 complete control
Outline: as §1

ragweed [9] = test: Test A postemergence; assay type: in vivo, Ambrosia elatior; conditions: for Plant response rating, Ragweed: 0 to 100 scale, 0 no effect, 100 complete control
Outline: as §1

Italian ryegrass [10] = test: Test A postemergence; assay type: in vivo, Lolium multiflorum; conditions: for Plant response rating, Ryegrass, Italian: 0 to 100 scale, 0 no effect, 100 complete control
Outline: as §1

giant foxtail [11] = test: Test A postemergence; assay type: in vivo, Setaria faberii; conditions: for Plant response rating, Foxtail, Giant: 0 to 100 scale, 0 no effect, 100 complete control
Outline: as §1

pigweed [12] = test: Test A postemergence; assay type: in vivo, Amaranthus retroflexus; conditions: for Plant response rating, Pigweed: 0 to 100 scale, 0 no effect, 100 complete control
Outline: as §1

wheat = test: Test A postemergence; assay type: in vivo, Triticum aestivum; conditions: for Plant response rating, Wheat: 0 to 100 scale, 0 no effect, 100 complete control
Outline: as §1

corn = test: Test A postemergence; assay type: in vivo, Zea mays; conditions: for Plant response rating, Corn: 0 to 100 scale, 0 no effect, 100 complete control
Outline: as §1

blackgrass = test: Test A postemergence; assay type: in vivo, Alopecurus myosuroides; conditions: for Plant response rating, Blackgrass: 0 to 100 scale, 0 no effect, 100 complete control
Outline: as §1

galium = test: Test A postemergence; assay type: in vivo, Galium aparine; conditions: for Plant response rating, Galium: 0 to 100 scale, 0 no effect, 100 complete control
Outline: as §1

rice = test: Test B flooded paddy test; assay type: in vivo, Oryza sativa; conditions: Flood, 250 g ai/ha; 0 to 100 scale where 0 is no effect and 100 is complete control
Outline: (§2)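 Evaluation is visual, against untreated controls, 13 to 15 days after treatment. Before treatment, plants reached the 2-leaf stage; pots were then flooded 3 cm deep, compound was added to the water, and that level was maintained. Ratings run 0 to 100, with 100 meaning complete control.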

sedge, umbrella = test: Test B flooded paddy test; assay type: in vivo, Cyperus difformis; conditions: Flood, 250 g ai/ha; 0 to 100 scale where 0 is no effect and 100 is complete control
Outline: as §2

Heteranthera limosa = test: Test B flooded paddy test; assay type: in vivo; conditions: Flood, 250 g ai/ha; 0 to 100 scale where 0 is no effect and 100 is complete control
Outline: as §2

barnyardgrass [13] = test: Test B flooded paddy test; assay type: in vivo, Echinochloa crus-galli; conditions: Flood, 250 g ai/ha; 0 to 100 scale where 0 is no effect and 100 is complete control
Outline: as §2

[14] = 31 g ai/ha, visual, approximately 10 days
[15] = 125 g ai/ha, 0 to 100 scale where 0 is no effect and 100 is complete control

SMILES | Plant response rating, Barnyardgrass (barnyardgrass [1]; [14]) | Plant response rating, Kochia (kochia [2]; [14]) | Plant response rating, Ragweed (ragweed [3]; [14]) | Plant response rating, Ryegrass, Italian (Italian ryegrass [4]; [14]) | Plant response rating, Foxtail, Giant (giant foxtail [5]; [14]) | Plant response rating, Pigweed (pigweed [6]; [14]) | Plant response rating, Barnyardgrass (barnyardgrass [7]; 31 g ai/ha) | Plant response rating, Kochia (kochia [8]; 31 g ai/ha) | Plant response rating, Ragweed (ragweed [9]; 31 g ai/ha) | Plant response rating, Ryegrass, Italian (Italian ryegrass [10]; 31 g ai/ha) | Plant response rating, Foxtail, Giant (giant foxtail [11]; 31 g ai/ha) | Plant response rating, Pigweed (pigweed [12]; 31 g ai/ha) | Plant response rating, Wheat (wheat; 31 g ai/ha) | Plant response rating, Corn (corn; 31 g ai/ha) | Plant response rating, Blackgrass (blackgrass; 31 g ai/ha) | Plant response rating, Galium (galium; 31 g ai/ha) | Plant response rating, Rice (rice) | Plant response rating, Sedge, Umbrella (sedge, umbrella) | Plant response rating, Ducksalad (Heteranthera limosa) | Plant response rating, Barnyardgrass (barnyardgrass [13]) | also measured
CCCOc1cnn(-c2c(F)cccc2Oc2ncc(F)cn2)c1 [Compound 153] | 0 | 0 | 0 | 0 | 0 | 0 | 0 | 0 | 0 | 0 | 0 | 0 | 0 | 0 | 0 | 0 | 0 | 0 | 30 | 0 | Plant response rating, Barnyardgrass (barnyardgrass [1]; 125 g ai/ha): 0; Plant response rating, Kochia (kochia [2]; 125 g ai/ha): 0; Plant response rating, Ragweed (ragweed [3]; 125 g ai/ha): 0; Plant response rating, Ryegrass, Italian (Italian ryegrass [4]; 125 g ai/ha): 0; Plant response rating, Foxtail, Giant (giant foxtail [5]; 125 g ai/ha): 0; Plant response rating, Pigweed (pigweed [6]; 125 g ai/ha): 0; Barnyardgrass plant response rating (barnyardgrass [7]; [15]): 0; Kochia plant response rating (kochia [8]; [15]): 0; Ragweed plant response rating (ragweed [9]; [15]): 0; Ryegrass, Italian plant response rating (Italian ryegrass [10]; [15]): 0; Foxtail, Giant plant response rating (giant foxtail [11]; [15]): 0; Pigweed plant response rating (pigweed [12]; [15]): 0; Wheat plant response rating (wheat; [15]): 0; Corn plant response rating (corn; [15]): 0; Blackgrass plant response rating (blackgrass; [15]): 0; Galium plant response rating (galium; [15]): 0
O=Cc1cn(-c2ccccc2Oc2ncc(Cl)cn2)nn1 [Compound 272] | 0 | 0 | 0 | 0 | 0 | 0 | 0 | 0 | 0 | 0 | 0 | 0 | 0 | 0 | 0 | 0 | 0 | 0 | 0 | 0 | Barnyardgrass plant response rating (0 to 100 scale, 0 is no effect, 100 is complete control) (barnyardgrass [1]; 125 g ai/ha): 0; Kochia plant response rating (0 to 100 scale) (kochia [2]; 125 g ai/ha): 0; Ragweed plant response rating (0 to 100 scale) (ragweed [3]; 125 g ai/ha): 0; Ryegrass, Italian plant response rating (0 to 100 scale) (Italian ryegrass [4]; 125 g ai/ha): 0; Foxtail, Giant plant response rating (0 to 100 scale) (giant foxtail [5]; 125 g ai/ha): 0; Pigweed plant response rating (0 to 100 scale) (pigweed [6]; 125 g ai/ha): 0; Plant response rating, Barnyardgrass (barnyardgrass [7]; 125 g ai/ha): 0; Plant response rating, Kochia (kochia [8]; 125 g ai/ha): 0; Plant response rating, Ragweed (ragweed [9]; 125 g ai/ha): 0; Plant response rating, Ryegrass, Italian (Italian ryegrass [10]; 125 g ai/ha): 0; Plant response rating, Foxtail, Giant (giant foxtail [11]; 125 g ai/ha): 0; Plant response rating, Pigweed (pigweed [12]; 125 g ai/ha): 0; Plant response rating, Wheat (wheat; 125 g ai/ha): 0; Plant response rating, Corn (corn; 125 g ai/ha): 0; Plant response rating, Blackgrass (blackgrass; 125 g ai/ha): 0; Plant response rating, Galium (galium; 125 g ai/ha): 0
